{"source": "patent US8815919B2", "about": "“Oxadiazole derivatives” (Merck Serono SA, priority 2009, dated 2014)", "key": {"S1P1 [1]": {"biological_target": "T1, S1P1 (Homo sapiens, UniProt P21453)", "test": "35S-GTPγS binding on membranes of CHO cells expressing S1P1", "assay_type": "biochemical", "conditions": "read-out: S1P1/GTPG EC50", "procedure": "(§1) Membranes were prepared from CHO cells expressing S1P1 or S1P3 for use in ligand and […] binding studies. Cells were suspended in 50 mM TRIS, pH 7.4, 2 mM EDTA, 250 mM Sucrose (buffer A) and 1× Complete protease inhibitor cocktail (Roche), and disrupted at 4° C. by N2 decompression using a cell disruption bomb (Parr Instrument). Following centrifugation at 1000 RPM for 10 min at 4° C., the supernatant was diluted (2×) in buffer A and centrifuged again at 19000 RPM for 75 min at 4° C. The pellet was then suspended in 10 mM HEPES, pH 7.4, 1 mM EDTA, 250 mM Sucrose (Buffer B), and 1× Complete EDTA-free protease inhibitor cocktail and homogenized using a potter. Membranes were flash frozen in liquid N2 and stored at −80° C.\n(§2) Membranes (1 to 10 μg protein) prepared as described above, were incubated in 96-well Scintiplates (PerkinElmer) with test compounds diluted in DMSO, in 140 μl of 20 mM HEPES, pH 7.4, 10 mM MgCl2, 2 μg/well Saponin, 0.2% fatty acid free BSA (Assay buffer), 125 mM NaCl and 1.5 μM GDP. The assay was initiated with the addition of 60 μl of 1.5 nM [35S]-GTPγS (1100 Ci/mmol; GE Healthcare) in assay buffer. After 60 min incubation at 30° C. on a shaker, plates were centrifuged for 10 min at 2000 RPM. Supernatant was discarded and membrane bound radioactivity was measured on a PerkinElmer 1450 MicroBeta counter. Triplicate samples were averaged and expressed as % response relative to S1P activation in absence of compound (n=2).\n(§3) The “potency” or the “activity” of the compounds is determined by the EC50 values as evaluated in the above described 35S-GTPγS binding assay."}, "S1P3 [2]": {"biological_target": "T2, S1P3 (Homo sapiens, UniProt Q99500)", "T2 sequence (Q99500 whole entry, species assumed)": "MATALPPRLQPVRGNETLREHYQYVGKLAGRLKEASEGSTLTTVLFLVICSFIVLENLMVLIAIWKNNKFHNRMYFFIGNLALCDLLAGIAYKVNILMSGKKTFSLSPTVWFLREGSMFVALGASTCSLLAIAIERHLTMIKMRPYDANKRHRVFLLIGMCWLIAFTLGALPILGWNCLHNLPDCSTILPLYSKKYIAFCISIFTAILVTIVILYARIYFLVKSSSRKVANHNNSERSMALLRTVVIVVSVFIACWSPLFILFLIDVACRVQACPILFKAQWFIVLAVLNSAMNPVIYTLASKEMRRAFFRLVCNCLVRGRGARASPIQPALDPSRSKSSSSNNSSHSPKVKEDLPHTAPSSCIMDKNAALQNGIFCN", "test": "35S-GTPγS binding on membranes of CHO cells expressing S1P3", "assay_type": "biochemical", "conditions": "read-out: S1P3/GTPG EC50", "procedure": "as §1, §2, §3"}, "S1P1 [3]": {"biological_target": "T1, S1P1", "test": "Receptor binding assay, [33P]sphingosine 1-phosphate competition, S1P1 membranes, WGA SPA beads", "in_short": "(§4)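 Competition of [33P]S1P ([…]) on CHO cell membranes with WGA SPA beads in 50 mM HEPES pH 7.5, 5 mM MgCl2, 100 mM NaCl, 0.4% fatty acid-free BSA; 60 min at RT. Triplicates normalised to total binding and nonspecific binding (1000-fold excess unlabeled S1P).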"}, "S1P3 [4]": {"biological_target": "T2, S1P3", "test": "Receptor binding assay, [33P]sphingosine 1-phosphate competition, S1P3 membranes, WGA SPA beads", "in_short": "as §4"}, "lymphocytes": {"system": "lymphocytes", "test": "Model of S1P agonists-induced lymphopenia in mice", "assay_type": "in vivo", "conditions": "oral", "procedure": "(§5) Female C57BL/6 mice (Elevage Janvier) (8 week old) receive S1P agonists by oral route. Blood is sampled in heparinized (100 IU/kg, ip) mice by intracardiac or retroorbital puncture under isoflurane anesthesia 2 to 120 hrs after drug treatment. The white blood cells (lymphocytes and neutrophils) are counted using a Beckman/Coulter counter. The quality of blood sampling is assessed by counting erythocytes and platelets."}, "[5]": {"test": "Pharmacokinetics in mouse (PK parameters from lymphopenia study)", "assay_type": "in vivo", "conditions": "30 mpk", "procedure": "as §5\nPharmacokinetics Data: • The pharmacoinetic properties of compound of example 20, N-(3-fluoro-5-{5-[2-(methoxymethyl)-2′-methylbiphenyl-4-yl]-1,2,4-oxadiazol-3-yl}benzyl)-N-methylglycine, hydrochloride salt, are the following: […]"}, "S1P1 [6]": {"biological_target": "T1, S1P1", "test": "S1P1 internalization assay in S1P1-U2OS cells (S1P1-EGFP), cell imaging", "assay_type": "cell-based", "set-up": "host or cells: U2OS (human bone osteosarcoma epithelial cells), CMV promoter, geneticin selection", "conditions": "1 hour incubation", "in_short": "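U2OS cells stably expressing human S1P1-EGFP, plated overnight in 1% FCS medium, then serum-starved 2 h in 0.1% fatty-acid-free BSA before 1 h compound exposure at 37 °C. After PFA fixation and Hoechst staining, internalization imaged as EGFP spot count per nucleus.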"}, "[7]": {"conditions": "female, C57BL/6, plasma, po, 30 mg/kg"}}, "note": "Counter-ions that a name gives are not always drawn. Like-named read-outs stand apart in the source and are kept apart here.", "data": [{"compound": "COCc1cc(-c2nc(-c3cc(F)cc(CN(C)CC(=O)O)c3)no2)ccc1-c1ccccc1C", "note": "[Example 20, N-(3-fluoro-5-{5-[2-(methoxymethyl)-2′-methylbiphenyl-4-yl]-1,2,4-oxadiazol-3-yl}benzyl)-N-methylglycine, hydrochloride salt]", "values": [{"measurement": "EC50", "setting": "S1P1 [1]", "result": 0.717, "unit": "nM"}, {"measurement": "EC50", "setting": "S1P3 [2]", "result": 59.9, "unit": "nM"}, {"measurement": "Ki", "setting": "S1P1 [3]; 96 well-plate, read-out: S1P1 binding Ki (M) (96 well-plate)", "result": "1.69e-10", "unit": "M"}, {"measurement": "Ki", "setting": "S1P1 [3]; 384 well-plate, read-out: S1P1 binding Ki (M) (384 well-plate)", "result": "1.33e-09", "unit": "M"}, {"measurement": "Ki", "setting": "S1P3 [4]; 96 well-plate, read-out: S1P3 binding Ki (M) (96 well-plate)", "result": "1.73e-08", "unit": "M"}, {"measurement": "Ki", "setting": "S1P3 [4]; 384 well-plate, read-out: S1P3 binding Ki (M) (384 well-plate)", "result": "7.78e-08", "unit": "M"}, {"measurement": "% Lymphopenia in mouse at 48 h", "setting": "lymphocytes", "result": "72 ± 5", "unit": "%"}, {"measurement": "Plasma AUD?", "setting": "[5]", "result": 202.751, "unit": "µg·h/mL"}, {"measurement": "Lymph node/plasma ratio: 24 h", "setting": "[5]; 24 h", "result": 0.8}, {"measurement": "Lymph node/plasma ratio: 48 h", "setting": "[5]; 48 h", "result": 0.7}, {"measurement": "Kp", "setting": "[5]; female, C57BL/6, brain, oral, 30 mg/kg, ratio of AUC, read-out: Brain/Plasma-Ratio: AUCZ (h*ng/ml)", "result": 0.15}, {"measurement": "Cmax", "setting": "[5]; [7]", "result": 10300, "unit": "ng/mL"}, {"measurement": "Tmax", "setting": "[5]; [7]", "result": 4, "unit": "h"}, {"measurement": "half-life", "setting": "[5]; [7]", "result": 5.3, "unit": "h"}, {"measurement": "CL/F", "setting": "[5]; female, C57BL/6, plasma, po, 30 mg/kg, read-out: Cl/F (L/kg/h) (Fz%)", "result": 0.15, "unit": "L/kg/h"}, {"measurement": "EC50", "setting": "S1P1 [6]", "result": 5.33, "unit": "nM"}]}]}
